Tested on: Pseudomonas aeruginosa PAM1001
Experiment: microbe, parasite or virus in culture
Format: cell-based
Description: The activity of efflux pump inhibitors (EPI) in combination with fluoroquinolones, such as levofloxacin, is assessed by the checkerboard assay (Antimicrobial Combinations. In Antibiotics in Laboratory Medicine, Ed. Victor Lorian, M. D., Fourth edition, 1996, pp 333-338) using broth microdilution method performed as recommended by the NCCLS (National Committee for Clinical Laboratory Standards (NCCLS). 1997. Methods for Dilution of Antimicrobial Susceptibility Tests for Bacteria That Grow Aerobically--Fourth Edition; Approved Standard. NCCLS Document M7-A4, Vol 17 No.2). The test organism used is Pseudomonas aeruginosa PAM1001.
In this assay, multiple dilutions of two drugs, namely the EPI and levofloxacin, are being tested, alone and in combination, at concentrations equal to, above and below their respective minimal inhibitory concentrations (MICs).
Stock solutions are further diluted, according to the needs of a particular assay, in Mueller Hinton Broth (MHB). Stock solution can be stored at -80° C. Quinolones are solubilized according to the instructions of the manufacturers, at a concentration of 1 mg/ml. They are then further diluted in MHB. Stock solution can be stored at -80° C.
The checkerboard assay is performed in microtiter plates. Levofloxacin is diluted in the x axis, each column containing a single concentration of levofloxacin. The EPI is diluted in the y axis, each row containing an equal concentration of EPI. The result of these manipulations is that each well of the microtiter plate contains a unique combination of concentrations of the two agents. Each EPI are tested independently.
The assay is performed in MHB with a final bacterial inoculum of 5×10^5 CFU/ml (from an early-log phase culture). Microtiter plates are incubated during 20 h at 35° C. and are read using a microtiterplate reader (Molecular Devices) at 650 nm as well as visual observation using a microtiterplate reading mirror.

[1] = Table 1, EPI Conc. μg/ml (number not given; column between 10 and 40 μg/ml)
[2] = Table 2, EPI Conc. μg/ml (number not given; column between 10 and 40 μg/ml)
[3] = Table 3, EPI Conc. μg/ml (number not given; column between 10 and 40 μg/ml)
[4] = Table 4, EPI Conc. μg/ml (number not given; column between 10 and 40 μg/ml)

Substance	Levofloxacin MIC Against P. aeruginosa PAM1001 in Presence of Efflux Pump Inhibitor (EPI), Minimum Inhibitory Concentration (Table 1, EPI Conc. 0 μg/ml)	Levofloxacin MIC Against P. aeruginosa PAM1001 in Presence of Efflux Pump Inhibitor (EPI), Minimum Inhibitory Concentration (Table 1, EPI Conc. 0.625 μg/ml)	Levofloxacin MIC Against P. aeruginosa PAM1001 in Presence of Efflux Pump Inhibitor (EPI), Minimum Inhibitory Concentration (Table 1, EPI Conc. 5 μg/ml)	Levofloxacin MIC Against P. aeruginosa PAM1001 in Presence of Efflux Pump Inhibitor (EPI), Minimum Inhibitory Concentration (Table 1, EPI Conc. 10 μg/ml)	Levofloxacin MIC Against P. aeruginosa PAM1001 in Presence of Efflux Pump Inhibitor (EPI), Minimum Inhibitory Concentration (Table 1, EPI Conc. 40 μg/ml)	Levofloxacin MIC Against P. aeruginosa PAM1001 in Presence of Efflux Pump Inhibitor (EPI), Minimum Inhibitory Concentration [1]	Levofloxacin MIC Against P. aeruginosa PAM1001 in Presence of Efflux Pump Inhibitor (EPI), Minimum Inhibitory Concentration (Table 2, EPI Conc. 0 μg/ml)	Levofloxacin MIC Against P. aeruginosa PAM1001 in Presence of Efflux Pump Inhibitor (EPI), Minimum Inhibitory Concentration (Table 2, EPI Conc. 0.625 μg/ml)	Levofloxacin MIC Against P. aeruginosa PAM1001 in Presence of Efflux Pump Inhibitor (EPI), Minimum Inhibitory Concentration (Table 2, EPI Conc. 5 μg/ml)	Levofloxacin MIC Against P. aeruginosa PAM1001 in Presence of Efflux Pump Inhibitor (EPI), Minimum Inhibitory Concentration (Table 2, EPI Conc. 10 μg/ml)	Levofloxacin MIC Against P. aeruginosa PAM1001 in Presence of Efflux Pump Inhibitor (EPI), Minimum Inhibitory Concentration (Table 2, EPI Conc. 40 μg/ml)	Levofloxacin MIC Against P. aeruginosa PAM1001 in Presence of Efflux Pump Inhibitor (EPI), Minimum Inhibitory Concentration [2]	Levofloxacin MIC Against P. aeruginosa PAM1001 in Presence of Efflux Pump Inhibitor (EPI), Minimum Inhibitory Concentration (Table 3, EPI Conc. 0 μg/ml)	Levofloxacin MIC Against P. aeruginosa PAM1001 in Presence of Efflux Pump Inhibitor (EPI), Minimum Inhibitory Concentration (Table 3, EPI Conc. 0.625 μg/ml)	Levofloxacin MIC Against P. aeruginosa PAM1001 in Presence of Efflux Pump Inhibitor (EPI), Minimum Inhibitory Concentration (Table 3, EPI Conc. 5 μg/ml)	Levofloxacin MIC Against P. aeruginosa PAM1001 in Presence of Efflux Pump Inhibitor (EPI), Minimum Inhibitory Concentration (Table 3, EPI Conc. 10 μg/ml)	Levofloxacin MIC Against P. aeruginosa PAM1001 in Presence of Efflux Pump Inhibitor (EPI), Minimum Inhibitory Concentration (Table 3, EPI Conc. 40 μg/ml)	Levofloxacin MIC Against P. aeruginosa PAM1001 in Presence of Efflux Pump Inhibitor (EPI), Minimum Inhibitory Concentration [3]	Levofloxacin MIC Against P. aeruginosa PAM1001 in Presence of Efflux Pump Inhibitor (EPI), Minimum Inhibitory Concentration (Table 4, EPI Conc. 0 μg/ml)	Levofloxacin MIC Against P. aeruginosa PAM1001 in Presence of Efflux Pump Inhibitor (EPI), Minimum Inhibitory Concentration (Table 4, EPI Conc. 0.625 μg/ml)	other results
D-Lysyl-β-N-(Cyclopropylmethyl)alanine Quinoline-3-amide Trifluoroacetate [Example 27]	4 µg/mL	4 µg/mL	0.125 µg/mL	0.125 µg/mL	0.06 µg/mL	0.125 µg/mL	4 µg/mL	4 µg/mL	2 µg/mL	2 µg/mL	2 µg/mL	2 µg/mL	4 µg/mL	4 µg/mL	0.06 µg/mL	0.03 µg/mL	0.03 µg/mL	0.03 µg/mL	4 µg/mL	4 µg/mL	Levofloxacin MIC Against P. aeruginosa PAM1001 in Presence of Efflux Pump Inhibitor (EPI), Minimum Inhibitory Concentration (Table 4, EPI Conc. 5 μg/ml): 2 µg/mL; Levofloxacin MIC Against P. aeruginosa PAM1001 in Presence of Efflux Pump Inhibitor (EPI), Minimum Inhibitory Concentration (Table 4, EPI Conc. 10 μg/ml): 2 µg/mL; Levofloxacin MIC Against P. aeruginosa PAM1001 in Presence of Efflux Pump Inhibitor (EPI), Minimum Inhibitory Concentration (Table 4, EPI Conc. 40 μg/ml): 1 µg/mL; Levofloxacin MIC Against P. aeruginosa PAM1001 in Presence of Efflux Pump Inhibitor (EPI), Minimum Inhibitory Concentration (Table 4, EPI Conc. […]): 4 µg/mL; Levofloxacin MIC Against P. aeruginosa PAM1001 in Presence of Efflux Pump Inhibitor (EPI), Minimum Inhibitory Concentration [4]: 1 µg/mL
D-Ornithyl-β-[N-(ethylthioethyl)]alanine 2-naphthylamide [Compound 42 (Table 3)]	4 µg/mL	4 µg/mL	4 µg/mL	1 µg/mL	0.008 µg/mL	0.06 µg/mL	4 µg/mL	4 µg/mL	0.25 µg/mL	0.03 µg/mL	0.06 µg/mL	0.03 µg/mL	4 µg/mL	4 µg/mL	2 µg/mL	0.25 µg/mL	0.125 µg/mL	0.125 µg/mL	4 µg/mL	4 µg/mL	Levofloxacin MIC Against P. aeruginosa PAM1001 in Presence of Efflux Pump Inhibitor (EPI), Minimum Inhibitory Concentration (Table 1, EPI Conc. […]): 4 µg/mL; Levofloxacin MIC Against P. aeruginosa PAM1001 in Presence of Efflux Pump Inhibitor (EPI), Minimum Inhibitory Concentration (Table 3, EPI Conc. […]): 4 µg/mL; Levofloxacin MIC Against P. aeruginosa PAM1001 in Presence of Efflux Pump Inhibitor (EPI), Minimum Inhibitory Concentration (Table 4, EPI Conc. 5 μg/ml): 2 µg/mL; Levofloxacin MIC Against P. aeruginosa PAM1001 in Presence of Efflux Pump Inhibitor (EPI), Minimum Inhibitory Concentration (Table 4, EPI Conc. 10 μg/ml): 1 µg/mL; Levofloxacin MIC Against P. aeruginosa PAM1001 in Presence of Efflux Pump Inhibitor (EPI), Minimum Inhibitory Concentration (Table 4, EPI Conc. 40 μg/ml): 0.03 µg/mL; Levofloxacin MIC Against P. aeruginosa PAM1001 in Presence of Efflux Pump Inhibitor (EPI), Minimum Inhibitory Concentration (Table 4, EPI Conc. […]): 4 µg/mL; Levofloxacin MIC Against P. aeruginosa PAM1001 in Presence of Efflux Pump Inhibitor (EPI), Minimum Inhibitory Concentration [4]: 0.125 µg/mL
D-Lysyl-β-N-(4-Methylphenethyl)alanine Quinoline-2-amide TFA [Example 22]	4 µg/mL	4 µg/mL	2 µg/mL	1 µg/mL	0.125 µg/mL	0.125 µg/mL	4 µg/mL	4 µg/mL	1 µg/mL	0.25 µg/mL	0.03 µg/mL	0.06 µg/mL	4 µg/mL	4 µg/mL	1 µg/mL	0.125 µg/mL	0.06 µg/mL	0.03 µg/mL	4 µg/mL	4 µg/mL	Levofloxacin MIC Against P. aeruginosa PAM1001 in Presence of Efflux Pump Inhibitor (EPI), Minimum Inhibitory Concentration (Table 1, EPI Conc. […]): 4 µg/mL; Levofloxacin MIC Against P. aeruginosa PAM1001 in Presence of Efflux Pump Inhibitor (EPI), Minimum Inhibitory Concentration (Table 2, EPI Conc. […]): 4 µg/mL; Levofloxacin MIC Against P. aeruginosa PAM1001 in Presence of Efflux Pump Inhibitor (EPI), Minimum Inhibitory Concentration (Table 4, EPI Conc. 5 μg/ml): 4 µg/mL; Levofloxacin MIC Against P. aeruginosa PAM1001 in Presence of Efflux Pump Inhibitor (EPI), Minimum Inhibitory Concentration (Table 4, EPI Conc. 10 μg/ml): 2 µg/mL; Levofloxacin MIC Against P. aeruginosa PAM1001 in Presence of Efflux Pump Inhibitor (EPI), Minimum Inhibitory Concentration (Table 4, EPI Conc. 40 μg/ml): 0.50 µg/mL; Levofloxacin MIC Against P. aeruginosa PAM1001 in Presence of Efflux Pump Inhibitor (EPI), Minimum Inhibitory Concentration (Table 4, EPI Conc. […]): 4 µg/mL; Levofloxacin MIC Against P. aeruginosa PAM1001 in Presence of Efflux Pump Inhibitor (EPI), Minimum Inhibitory Concentration [4]: 1 µg/mL

Source: patent publication US6114310A, “Efflux pump inhibitors” (priority 1998, dated 2000)
